We go through 44 compounds from patent publication US7517998B2, “Non nucleoside reverse transcriptase inhibitors” (priority 2004, dated 2009).

For this test, the target named is T1, K103NNY181C mutant reverse transcriptase (Human immunodeficiency virus type 1 group M subtype B, UniProt P04585, K690N/Y768C).
T1 construct: mutations that occur in the reverse transcriptase segment of the pol gene
In words: Reverse transcriptase enzymatic assay (PicoGreen), K103N/Y181C mutant RT. It is filed as biochemical, HIV-1. The note with it: enzymatic assay of Example 24. The method, then:
The enzymatic assay employed is described as follows: The reverse transcriptase (RT) enzyme assay has been adapted to a 96-well microtiter plate format and uses PicoGreen™ as a fluorescent intercalator. More explicitly, the HIV-1 RT enzyme was thawed and appropriately diluted into Tris/HCl 50 mM pH 7.8 containing NaCl 60 mM, MgCl2.6H2O 2 mM, DTT 6 mM, GSH 2 mM and 0.02% w/v Chaps to give ≈10 nM enzyme. To 10 μL of this enzyme solution was added 10 μL of inhibitor solution (40 μM to 2.032 nM inhibitor in the same assay buffer as above containing 4% v/v DMSO). The plate was pre-incubated for 15 minutes at room temperature before proceeding to the next step. In this pre-incubation step, the highest and lowest inhibitor concentrations were 20 μM and 1.016 nM respectively and the concentration of DMSO was 2% v/v. Then the enzymatic reaction was initiated by addition of 20 μL of substrate solution. The final reaction mixture contained Tris/HCl 50 mM pH 7.8, NaCl 60 mM, MgCl2.6H2O 2 mM, DTT 6 mM, GSH 2 mM, CHAPS 0.02% w/v, DMSO 1% v/v, poly rC 45 nM, dG15 4.5 nM, dGTP 3.6 μM, and 2.5 nM enzyme. In this incubation step, the highest and lowest inhibitor concentrations were 10 μM and 0.508 nM respectively. After addition of the substrate cocktail, the plate was covered with a plastic seal and incubated for 50 minutes at 37° C. in a dry incubator. The reaction was then quenched by addition of 5 μL of EDTA 0.5 M. The plate was shaken for 30 seconds at medium speed and incubated for 5 minutes at room temperature. Then 160 μL of PicoGreen™ 1:400 dilution from commercial stock (diluted in Tris 20 mM pH 7.5 with EDTA 1 mM) was added and the plate was shaken for 30 seconds and incubated for 10 minutes at room temperature. The plate was then analyzed using a POLARstar Galaxy fluorometer (BMG Labtechnologies) with λex and λem of 485 nm and 520 nm respectively. Each well was read for 1.25 second. Each row contained at its extremities a blank and a control well.

The mark [1] stands for this setting: IC50 mut, mutant reverse transcriptase.
The mark [2] stands for this setting: IC50 mut, K103N/Y181C mutant reverse transcriptase.
Where [3] appears, read: IC50 mut (nM), mutant (K103N/Y181C) reverse transcriptase.

On to `O=C(CSc1nnnn1-c1ccc(C2CC2)cc1Cl)Nc1ccc(-c2ccc(OCCN3CCS(=O)(=O)CC3)cc2)c(F)c1Cl` [Compound 2059], for which the IC50 under setting [1] is 13 nM.
`CC(C)(C)c1ccc(-n2nnnc2SCC(=O)Nc2ccc(C(=O)Nc3ccc(/C=C/C(=O)O)cc3)cc2Cl)c(Cl)c1` [Compound 6022]: the IC50 under setting [1] worked out at 14 nM.
The same measure, in the same setting: as for `CC(C)(C)c1ccc(-n2nnnc2SCC(=O)Nc2ccc(OCC(=O)Nc3ccccc3O)cc2Cl)c(Cl)c1` [Compound 5009], the figure is 131 nM.
The compound `CC(C)(C#Cc1ccc(NC(=O)CSc2nnnn2-c2ccc(C3CC3)cc2Cl)c(Cl)c1)C(=O)NCCN1CCCC1` [Compound 4143] yielded an IC50 under setting [2] of 65 nM.
Compound `CNC(=O)COC(C)(C)C#Cc1ccc(NC(=O)CSc2nnnn2-c2ccc(C(C)(C)C)cc2Cl)c(Cl)c1` [Compound 4051] registered an IC50 under setting [2] of 35 nM.
`CC(C)(C)c1ccc(-n2nnnc2SCC(=O)Nc2ccc(NC(=O)Cc3ccccc3C(F)(F)F)cc2Cl)c(Cl)c1` [Compound 7045] came in with an IC50 under setting [3] of 432 nM.
The compound `CN1CCN(C(=O)c2ccc(NC(=O)CSc3nnnn3-c3ccc(C(C)(C)C)cc3Cl)c(Cl)c2)CC1` [Compound 6004] yielded an IC50 under setting [1] of 398 nM.
`CC(C)(C#Cc1ccc(NC(=O)CSc2nnnn2-c2ccc(C3CC3)cc2Cl)c(Cl)c1)NC(=O)CC(=O)O` [Compound 4232] displayed a concentration for half-maximal inhibition (IC50) under setting [2] of 10 nM.
Same read-out and setting: the figure for `CCOC(=O)NC(C)(C)C#Cc1ccc(NC(=O)CSc2nnnn2-c2ccc(C3CC3)cc2Cl)c(Cl)c1` [Compound 4081] is 19.5 nM.
`CC(C)(C)c1ccc(-n2nnnc2SCC(=O)Nc2ccc(C(=O)Nc3ccc(CCC(=O)O)cc3)cc2Cl)c(Cl)c1` [Compound 6031] registered an IC50 under setting [1] of 29.5 nM.
Under setting [1], `CC(C)(C)c1ccc(-n2nnnc2SCC(=O)Nc2ccc(OCC(=O)Nc3cccc(O)c3)cc2Cl)c(Cl)c1` [Compound 5011] came in with a 50% inhibitory concentration (IC50) of 69 nM.
For `CC(=O)NNC(=O)COC(C)(C)C#Cc1ccc(NC(=O)CSc2nnnn2-c2ccc(C(C)(C)C)cc2Cl)c(Cl)c1` [Compound 4043], half-maximal inhibition under setting [2] (IC50) was put at 35 nM.
Same read-out and setting: as for `CC(C)(C#Cc1ccc(NC(=O)CSc2nnnn2-c2cc(C(C)(C)C)cc(Br)c2Cl)c(Cl)c1)C(=O)O` [Compound 4219], the figure is 97 nM.
Turning to `O=C(CSc1nnnn1-c1ccc(C2CC2)cc1Cl)Nc1ccc(-c2ccc(OCCN3CCCCC3)c(Cl)c2)cc1Cl` [Compound 3038], half-maximal inhibition under setting [1] (IC50) required 167 nM.
Consider `CN(C)C(=O)COC(C)(C)C#Cc1ccc(NC(=O)CSc2nnnn2-c2ccc(C(C)(C)C)cc2Cl)c(Cl)c1` [Compound 4049], for which the IC50 under setting [2] is 30 nM.
With `CN(C)c1ccc(NC(=O)c2ccc(NC(=O)CSc3nnnn3-c3ccc(C(C)(C)C)cc3Cl)c(Cl)c2)cc1` [Compound 6012], the IC50 under setting [1] stood at 47 nM.
In turn, `Cc1ccc(-n2nnnc2SCC(=O)Nc2ccc(/C=C/C(=O)O)cc2Cl)c(Cl)c1` [Compound 3006] had an IC50 under setting [1] of 265 nM.
Compound `Cc1cc(NC(=O)c2ccc(NC(=O)CSc3nnnn3-c3ccc(C(C)(C)C)cc3Cl)c(Cl)c2)ccc1/C=C/C(=O)O` [Compound 6032] registered a half-maximal inhibitory concentration (IC50) under setting [1] of 20.5 nM.
Regarding `COc1cccc(CC(=O)Nc2ccc(NC(=O)CSc3nnnn3-c3ccc(C(C)(C)C)cc3Cl)c(Cl)c2)c1` [Compound 7016], under setting [3], half-maximal inhibition (IC50) was put at 145 nM.
For the compound `O=C(CSc1nnnn1-c1ccc(C2CC2)cc1Cl)Nc1ccc(C(=O)NCc2cc[n+]([O-])cc2)cc1Cl` [Compound 6034], under setting [1], the concentration for half-maximal inhibition (IC50) is 44.5 nM.
As to `CC(C)(C#Cc1ccc(NC(=O)CSc2nnnn2-c2ccc(C(C)(C)C)cc2Cl)c(Cl)c1)COC(N)=O` [Compound 4042], under setting [2], the IC50 was determined as 37 nM.
`O=C(COc1ccc(NC(=O)CSc2nnnn2-c2ccc(C3CC3)cc2Cl)c(Cl)c1)NCCc1ccccn1` [Compound 5034]: the half-maximal inhibitory concentration (IC50) under setting [1] turned out to be 357 nM.
`CC(C)(C#Cc1ccc(NC(=O)CSc2nnnn2-c2cc(C(F)(F)F)ccc2Cl)c(Cl)c1)OCCN1CCCC1` [Compound 4142] gave a concentration for half-maximal inhibition (IC50) under setting [2] of 50.5 nM.
Under setting [1], `CN1CCN(C(=O)COc2ccc(NC(=O)CSc3nnnn3-c3ccc(C(C)(C)C)cc3Cl)c(Cl)c2)CC1` [Compound 5003] registered an IC50 of 48 nM.
As to `CC(C)(C)c1ccc(-n2nnnc2SCC(=O)Nc2ccc(OCC(=O)NN3CCOCC3)cc2Cl)c(Cl)c1` [Compound 5006], the concentration for half-maximal inhibition (IC50) under setting [1] amounted to 374 nM.
`CC(C)(C#Cc1ccc(NC(=O)CSc2nnnn2-c2ccc(C3CC3)cc2Cl)c(Cl)c1)NCc1nccs1` [Compound 4129] returned an IC50 under setting [2] of 15.5 nM.
For the compound `CC(C)(C#Cc1ccc(NC(=O)CSc2nnnn2-c2ccc(C3CC3)cc2Cl)c(Cl)c1)OCCN1CCC(O)CC1` [Compound 4104], half-maximal inhibition under setting [2] (IC50) required 64.5 nM.
Consider `CC(C)(C#Cc1ccc(NC(=O)CSc2nnnn2-c2ccc(C(C)(C)C)cc2Cl)c(Cl)c1)COC(N)=O` [Compound 4033], for which, under setting [2], the IC50 was 36 nM.
Still for that read-out and setting: as for `CC(C)(C)c1ccc(-n2nnnc2SCC(=O)Nc2ccc(C#CCN3CCCC3)cc2Cl)c(Cl)c1` [Compound 4012], the figure is 46 nM; as for `CC(C)(C#Cc1ccc(NC(=O)CSc2nnnn2-c2cc(C(C)(C)C)cc(Br)c2Cl)c(Cl)c1)NC(=O)CNc1cc[n+]([O-])cc1` [Compound 4225], 162 nM.
`CC(C)(C)c1ccc(-n2nnnc2SCC(=O)Nc2ccc(C(=O)NC(CO)C(=O)O)cc2Cl)c(Cl)c1` (centres unmarked) [Compound 6018]: under setting [1], the IC50 came to 28 nM.
On the same count and under the same terms, the figure for `CC(C)c1ccc(-n2nnnc2SCC(=O)Nc2ccc(-c3ccc(OCCN4CCCC4)cc3)cc2Cl)c(Br)c1` [Compound 2053] is 24 nM.
For `CC(C(=O)Nc1ccc(NC(=O)CSc2nnnn2-c2ccc(C(C)(C)C)cc2Cl)c(Cl)c1)c1ccccc1` (centres unmarked) [Compound 7044], the IC50 under setting [3] came out at 335 nM.
For `CC(=O)NC(C(=O)Nc1ccc(NC(=O)CSc2nnnn2-c2ccc(C(C)(C)C)cc2Cl)c(Cl)c1)c1ccccc1` (centres unmarked) [Compound 7033], under setting [3], the IC50 worked out at 21.5 nM.
As for `C=CC#Cc1ccc(NC(=O)CSc2nnnn2-c2ccc(C3CC3)cc2Cl)c(Cl)c1` [Compound 4133], the IC50 under setting [2] was found to be 53.5 nM.
Take `Cc1ccc(-n2nnnc2SCC(=O)Nc2ccc(-c3ccc(C(=O)O)cc3)cc2Cl)c(Cl)c1` [Compound 2002]: the half-inhibitory concentration (IC50) under setting [1] worked out at 53 nM.
Compound `CC(C)(C)c1ccc(-n2nnnc2SCC(=O)Nc2ccc(OCC(=O)NCc3ccco3)cc2Cl)c(Cl)c1` [Compound 5002] returned an IC50 under setting [1] of 137 nM.
Compound `CC(C)(C)c1ccc(-n2nnnc2SCC(=O)Nc2ccc(OCC(=O)NC(CO)C(=O)O)cc2Cl)c(Cl)c1` (centres unmarked) [Compound 5018] came in with an IC50 under setting [1] of 92 nM.
Consider `CC(C)C(=O)Nc1ccc(NC(=O)CSc2nnnn2-c2ccc(C(C)(C)C)cc2Cl)c(Cl)c1` [Compound 7010], for which, under setting [3], the IC50 is 83 nM.
`CC(C)(C)c1ccc(-n2nnnc2SCC(=O)Nc2ccc(-c3ccc(/C=C/C(=O)O)cc3)cc2Cl)c(Cl)c1` [Compound 2032]: under setting [1], the IC50 amounted to 6.6 nM.
Compound `CC(C)(C#Cc1ccc(NC(=O)CSc2nnnn2-c2ccc(C3CC3)cc2Cl)c(Cl)c1)OCCN` [Compound 4190] showed an IC50 under setting [2] of 59.5 nM.
As for `COC(=O)NS(=O)(=O)c1ccc(NC(=O)CSc2nnnn2-c2ccc(C3CC3)cc2Cl)c(Cl)c1` [Compound 3040], 236 nM corresponded to half-maximal inhibition under setting [1] (IC50).
`CC(C)(C#Cc1ccc(NC(=O)CSc2nnnn2-c2ccc(C3CC3)cc2Cl)c(Cl)c1)NC(=O)CNc1cc[n+]([O-])cc1` [Compound 4193] registered an IC50 under setting [2] of 29 nM.
Same read-out and setting: the figure for `CC(C)(C#Cc1ccc(NC(=O)CSc2nnnn2-c2cc(C3CC3)cc(C(F)(F)F)c2Cl)c(Cl)c1F)NC(=O)c1ccc[n+]([O-])c1` [Compound 4248] is 30.5 nM.

As usually defined, the IC50 is the concentration needed to halve the response being measured. Lower therefore signals greater potency in that assay.
